Experimental data as given in article PMC5033074 (Nature chemical biology, 2016).
Read-outs that look alike come from different tables or passages of the source.

Experiments:
[1] = tested on: Pol II CTD Ser2 phosphorylation; details: cited from earlier work
CDK12-cyclin K complexes = CDK12-cyclin K complexes (Homo sapiens, UniProt Q9NYV4); test: target-engagement assay; format: cell-based; details: competition with lysate-introduced bioTHZ1
CDK13 = CDK13 (Homo sapiens, UniProt Q14004); test: Ambit in vitro binding profiling
Jurkat cells = test: Annexin V / propidium iodide flow cytometry; format: cell-based, human
[2] = tested on: steady-state mRNA levels in Jurkat cells; test: gene expression analysis; format: cell-based, human; details: for effect on steady-state mRNA levels: 500 nM, 6h
other 211 kinases = test: KiNativ intracellular kinase profiling; details: ATP-desthiobiotin probe
ERK1 = ERK1 (Homo sapiens, UniProt P27361); test: kinase assay, control kinase; format: biochemical
HAP1 cells = test: HAP1 WT vs CDK12 C1039S proliferation assay; format: cell-based, human; details: 72 hours
[3] = tested on: Pol II CTD Ser2 phosphorylation; test: Pol II CTD phosphorylation immunoblot; format: cell-based, human; details: Jurkat cells, 6 hrs
[4] = tested on: pSer2 Pol II occupancy in Jurkat cells; test: pSer2 Pol II ChIP-seq; format: cell-based, human
CDK12- cyclin K complex = CDK12- cyclin K complex (Homo sapiens, UniProt Q9NYV4); test: mass spectrometry of protein-inhibitor complex; format: binding; details: 17 µM complex, 25 µM compound, overnight at 4°C
[5] = tested on: Jurkat T-cell acute lymphoblastic leukemia cells; test: Jurkat proliferation assay; format: cell-based, human; details: for antiproliferative activity in Jurkat cells: 72 hrs, CellTiter Glo
CDK9-cyclin T1 = CDK9-cyclin T1 (Homo sapiens, UniProt P50750); test: radiometric in vitro kinase assay; format: biochemical; details: compared with THZ531
CDK7-cyclin H-MAT1 = CDK7-cyclin H-MAT1 (Homo sapiens, UniProt P50613); format: biochemical; details: compared with THZ531
CDK12-cyclin K = CDK12-cyclin K (Homo sapiens, UniProt Q9NYV4); format: biochemical; details: relative to THZ531
CDK13-cyclin K = CDK13-cyclin K (Homo sapiens, UniProt Q14004); test: radiometric in vitro kinase assay; format: biochemical; details: relative to THZ531
[6] = tested on: CDK12-cyclin K, CDK13-cyclin K and CDK7-cyclin H complexes; details: 1 µM biotinylated probe
[7] = molecular target: human CDK12 residues 715-1052 (human, UniProt Q9NYV4-1 715-1052, THZ531 covalently bound to Cys-1039; phosphorylated (site not stated)); test: crystal structure

CDK7-cyclin H-MAT1, sequence (P50613 whole entry): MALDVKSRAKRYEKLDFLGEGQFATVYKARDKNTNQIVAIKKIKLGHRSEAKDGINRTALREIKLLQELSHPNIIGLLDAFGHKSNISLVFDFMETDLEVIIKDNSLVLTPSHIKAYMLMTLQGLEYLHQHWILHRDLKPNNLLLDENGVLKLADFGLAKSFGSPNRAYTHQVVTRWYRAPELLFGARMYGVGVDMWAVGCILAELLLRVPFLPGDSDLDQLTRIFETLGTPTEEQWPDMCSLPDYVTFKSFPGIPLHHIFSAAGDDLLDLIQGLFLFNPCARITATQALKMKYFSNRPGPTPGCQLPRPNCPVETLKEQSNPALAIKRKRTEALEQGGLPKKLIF
CDK7-cyclin H-MAT1, sequence (P51946 whole entry partner): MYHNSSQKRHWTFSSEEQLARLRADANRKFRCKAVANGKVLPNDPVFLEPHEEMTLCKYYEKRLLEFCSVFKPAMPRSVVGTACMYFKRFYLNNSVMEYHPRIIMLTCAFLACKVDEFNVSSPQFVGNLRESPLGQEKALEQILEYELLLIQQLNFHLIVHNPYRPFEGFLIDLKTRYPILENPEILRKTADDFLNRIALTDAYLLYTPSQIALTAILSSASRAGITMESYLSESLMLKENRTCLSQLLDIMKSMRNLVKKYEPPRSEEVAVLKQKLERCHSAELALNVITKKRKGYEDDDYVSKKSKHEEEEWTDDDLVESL
CDK7-cyclin H-MAT1, sequence (P51948 whole entry partner): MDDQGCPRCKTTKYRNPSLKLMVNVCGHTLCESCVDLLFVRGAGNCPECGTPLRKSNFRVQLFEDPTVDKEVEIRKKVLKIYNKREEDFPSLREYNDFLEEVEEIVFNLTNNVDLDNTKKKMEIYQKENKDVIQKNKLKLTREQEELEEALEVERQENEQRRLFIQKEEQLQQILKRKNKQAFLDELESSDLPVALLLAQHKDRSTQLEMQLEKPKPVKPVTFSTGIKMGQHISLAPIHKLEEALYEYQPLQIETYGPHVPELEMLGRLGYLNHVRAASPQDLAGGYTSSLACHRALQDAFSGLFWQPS
CDK12-cyclin K, sequence (Q9NYV4 696-1082 limits assumed): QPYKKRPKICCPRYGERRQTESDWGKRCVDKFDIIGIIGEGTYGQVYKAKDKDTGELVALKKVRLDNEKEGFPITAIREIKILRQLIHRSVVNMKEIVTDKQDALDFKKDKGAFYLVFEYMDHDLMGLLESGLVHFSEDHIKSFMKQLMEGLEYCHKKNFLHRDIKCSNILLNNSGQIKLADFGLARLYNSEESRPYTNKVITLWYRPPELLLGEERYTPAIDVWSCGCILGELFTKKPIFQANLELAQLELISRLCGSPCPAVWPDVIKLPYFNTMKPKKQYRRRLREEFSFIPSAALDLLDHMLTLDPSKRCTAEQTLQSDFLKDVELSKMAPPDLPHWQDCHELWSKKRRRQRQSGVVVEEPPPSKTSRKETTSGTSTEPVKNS
CDK12-cyclin K, sequence (O75909 1-267 partner limits assumed): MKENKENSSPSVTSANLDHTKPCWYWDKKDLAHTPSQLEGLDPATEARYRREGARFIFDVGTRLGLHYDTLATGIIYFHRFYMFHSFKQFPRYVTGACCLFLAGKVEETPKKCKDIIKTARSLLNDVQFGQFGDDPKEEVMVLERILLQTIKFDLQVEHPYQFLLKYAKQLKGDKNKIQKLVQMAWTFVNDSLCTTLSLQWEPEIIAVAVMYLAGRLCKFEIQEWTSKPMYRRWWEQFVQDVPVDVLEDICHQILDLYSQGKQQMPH
CDK9-cyclin T1, sequence (P50750 whole entry): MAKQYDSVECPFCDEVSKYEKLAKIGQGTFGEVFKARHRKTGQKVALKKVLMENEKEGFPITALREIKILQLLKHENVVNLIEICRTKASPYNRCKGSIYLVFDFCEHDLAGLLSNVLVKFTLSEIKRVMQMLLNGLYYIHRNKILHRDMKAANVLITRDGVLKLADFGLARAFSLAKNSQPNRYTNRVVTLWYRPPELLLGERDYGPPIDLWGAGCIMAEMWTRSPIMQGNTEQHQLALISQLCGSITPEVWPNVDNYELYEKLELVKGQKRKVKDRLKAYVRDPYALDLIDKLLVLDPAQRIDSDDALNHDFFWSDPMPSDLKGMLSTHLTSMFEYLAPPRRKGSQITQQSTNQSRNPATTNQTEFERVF
CDK9-cyclin T1, sequence (O60563 1-272 partner limits assumed): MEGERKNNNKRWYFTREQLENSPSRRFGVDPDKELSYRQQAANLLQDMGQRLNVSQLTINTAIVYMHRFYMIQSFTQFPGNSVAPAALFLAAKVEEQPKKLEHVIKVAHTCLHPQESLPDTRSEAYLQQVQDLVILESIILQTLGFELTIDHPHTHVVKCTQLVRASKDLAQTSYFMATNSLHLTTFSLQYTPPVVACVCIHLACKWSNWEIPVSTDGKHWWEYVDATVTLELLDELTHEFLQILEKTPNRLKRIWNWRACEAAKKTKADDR
CDK13-cyclin K, sequence (Q14004 694-1039 limits assumed): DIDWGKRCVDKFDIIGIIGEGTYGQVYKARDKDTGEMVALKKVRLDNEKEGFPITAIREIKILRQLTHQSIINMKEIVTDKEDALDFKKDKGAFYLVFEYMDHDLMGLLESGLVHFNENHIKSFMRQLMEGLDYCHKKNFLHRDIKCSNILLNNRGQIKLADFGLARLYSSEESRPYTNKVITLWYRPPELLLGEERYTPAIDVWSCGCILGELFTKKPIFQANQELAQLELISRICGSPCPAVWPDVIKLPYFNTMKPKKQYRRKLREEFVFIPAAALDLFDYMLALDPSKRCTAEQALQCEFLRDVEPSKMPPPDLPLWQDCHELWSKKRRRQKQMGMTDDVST
CDK13-cyclin K, sequence (O75909 1-267 partner limits assumed): as the sequence (O75909 1-267 partner limits assumed) above
CDK12-cyclin K complexes, sequence (Q9NYV4 whole entry): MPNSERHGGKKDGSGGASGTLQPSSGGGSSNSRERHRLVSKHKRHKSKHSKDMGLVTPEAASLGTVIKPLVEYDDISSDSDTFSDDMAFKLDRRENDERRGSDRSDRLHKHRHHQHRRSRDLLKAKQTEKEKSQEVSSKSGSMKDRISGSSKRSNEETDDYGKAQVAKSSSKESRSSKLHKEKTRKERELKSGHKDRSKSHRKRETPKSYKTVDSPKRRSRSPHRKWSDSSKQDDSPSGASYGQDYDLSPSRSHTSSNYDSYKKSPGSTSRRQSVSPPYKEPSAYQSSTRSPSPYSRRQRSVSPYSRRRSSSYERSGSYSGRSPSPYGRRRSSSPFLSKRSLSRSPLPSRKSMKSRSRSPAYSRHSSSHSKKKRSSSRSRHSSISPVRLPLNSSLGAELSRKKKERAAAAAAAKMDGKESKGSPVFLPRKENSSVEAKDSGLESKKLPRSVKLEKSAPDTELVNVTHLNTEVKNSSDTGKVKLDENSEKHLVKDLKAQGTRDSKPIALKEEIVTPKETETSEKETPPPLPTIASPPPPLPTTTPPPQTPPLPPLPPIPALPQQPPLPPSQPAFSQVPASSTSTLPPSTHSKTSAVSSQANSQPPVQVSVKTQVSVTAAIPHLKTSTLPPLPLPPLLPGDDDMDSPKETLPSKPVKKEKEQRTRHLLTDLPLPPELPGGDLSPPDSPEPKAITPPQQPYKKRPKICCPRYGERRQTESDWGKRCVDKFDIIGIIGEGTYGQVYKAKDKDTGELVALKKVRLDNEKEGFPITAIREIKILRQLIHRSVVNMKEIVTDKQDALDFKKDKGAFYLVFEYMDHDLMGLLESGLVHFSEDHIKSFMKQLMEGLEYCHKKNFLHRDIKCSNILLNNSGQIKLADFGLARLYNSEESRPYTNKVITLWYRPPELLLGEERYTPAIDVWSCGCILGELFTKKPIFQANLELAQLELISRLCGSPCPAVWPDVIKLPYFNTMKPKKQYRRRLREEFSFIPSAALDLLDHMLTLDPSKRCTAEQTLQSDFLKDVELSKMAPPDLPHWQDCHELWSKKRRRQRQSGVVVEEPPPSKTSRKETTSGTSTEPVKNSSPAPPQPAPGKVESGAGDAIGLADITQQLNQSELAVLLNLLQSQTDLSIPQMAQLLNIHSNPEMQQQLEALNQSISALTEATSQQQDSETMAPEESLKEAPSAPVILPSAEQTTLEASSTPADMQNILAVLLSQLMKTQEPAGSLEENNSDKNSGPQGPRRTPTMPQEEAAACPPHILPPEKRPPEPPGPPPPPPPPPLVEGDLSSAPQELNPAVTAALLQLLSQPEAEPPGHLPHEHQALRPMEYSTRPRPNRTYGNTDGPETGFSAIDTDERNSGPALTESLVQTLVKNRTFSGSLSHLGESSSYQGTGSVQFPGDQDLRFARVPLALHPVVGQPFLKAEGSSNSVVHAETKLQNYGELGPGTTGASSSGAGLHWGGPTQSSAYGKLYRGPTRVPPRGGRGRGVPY
CDK12-cyclin K complexes, sequence (O75909 whole entry partner): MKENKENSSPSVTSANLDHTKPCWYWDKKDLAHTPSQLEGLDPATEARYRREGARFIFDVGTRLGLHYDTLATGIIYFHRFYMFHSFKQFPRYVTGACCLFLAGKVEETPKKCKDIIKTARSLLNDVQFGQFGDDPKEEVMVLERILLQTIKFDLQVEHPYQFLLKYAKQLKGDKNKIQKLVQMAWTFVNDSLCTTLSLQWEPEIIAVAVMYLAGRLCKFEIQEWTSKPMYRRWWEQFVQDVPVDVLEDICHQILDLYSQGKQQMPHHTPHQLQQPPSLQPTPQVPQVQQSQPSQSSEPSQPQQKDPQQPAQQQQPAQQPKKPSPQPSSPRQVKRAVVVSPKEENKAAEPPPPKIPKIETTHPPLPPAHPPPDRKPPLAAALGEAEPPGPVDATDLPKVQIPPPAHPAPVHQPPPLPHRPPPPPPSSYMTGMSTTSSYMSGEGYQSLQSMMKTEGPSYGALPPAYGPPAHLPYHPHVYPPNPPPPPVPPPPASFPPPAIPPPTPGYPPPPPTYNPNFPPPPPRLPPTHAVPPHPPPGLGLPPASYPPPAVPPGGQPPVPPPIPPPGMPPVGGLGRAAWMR

In the case of `CN(C)C/C=C/C(=O)Nc1ccc(C(=O)Nc2cccc(Nc3ncc(Cl)c(-c4c[nH]c5ccccc45)n3)c2)cc1` [THZ1], the “effect on Pol II CTD phosphorylation” value [1] is given as “complete loss of Pol II CTD phosphorylation”.

In the case of `CN(C)C/C=C/C(=O)Nc1ccc(C(=O)N2CCC[C@@H](Nc3ncc(Cl)c(-c4c[nH]c5ccccc45)n3)C2)cc1` [THZ531, (R,E)-N-(4-(3-((5-chloro-4-(1H-indol-3-yl)pyrimidin-2-yl)amino)piperidine-1-carbonyl)phenyl)-4-(dimethylamino)but-2-enamide], the “binding to intracellular CDK12-cyclin K vs CDK7-cyclin H” value (CDK12-cyclin K complexes) is reported as “binds intracellular CDK12-cyclin K complexes with higher affinity than CDK7-cyclin H complexes”, the “Ambit profiling score of CDK13” value (CDK13) is reported as “among the top scoring kinases” and the “percentage of apoptotic cells over DMSO control” value (Jurkat cells; 50 nM, time course of the experiment) is reported as “no increase in the percentage of apoptotic cells”. For the same molecule, the “annexin V-positively stained cells” value (Jurkat cells; higher doses (above 50 nM), by 72 hrs) was 30–40%, the “expression of core DDR genes BRCA1, FANCF, ERCC4” value ([2]; 50 nM) was “substantial loss of expression” and the “labeling of the other 211 kinases (not CDK12 and 13)” value (other 211 kinases) was at most 55%. The “inhibitory effect on ERK1” value (ERK1) was “no appreciable inhibitory effect”, the “effect of CDK12 C1039S substitution on antiproliferative effect” value (HAP1 cells) was “partial restoration of cellular proliferation” and the “effect on Pol II CTD phosphorylation” value [3] was “selectively reduced Ser2 phosphorylation levels without appreciable effect on CTD pSer5/pSer7 levels”. The “pSer2 ChIP-seq signal” value ([4]; 50 nM) was “did not appreciably change pSer2 ChIP-seq signal”, the “pSer2 ChIP-seq signal” value ([4]; 500 nM) was “dramatic decrease in 3’ end –associated pSer2 ChIP-seq signal” and the “covalent binding to CDK12-cyclin K” value (CDK12- cyclin K complex) was “Near complete covalent binding”. The IC50 ([5]; Homo sapiens, Jurkat, 72 h, read-out: IC50 Jurkat cell proliferation) was 50 nM.

For `CN(C)CCCC(=O)Nc1ccc(C(=O)N2CCC[C@@H](Nc3ncc(Cl)c(-c4c[nH]c5ccccc45)n3)C2)cc1` [THZ531R, (R)-N-(4-(3-((5-chloro-4-(1H-indol-3-yl)pyrimidin-2-yl)amino)piperidine-1-carbonyl)phenyl)-4-(dimethylamino)butanamide], the “inhibition activity on CDK9” value (CDK9-cyclin T1) was “similarly–low–inhibition activity”, the “effect on steady-state mRNA levels” value [2] was “decreased neither Ser2 phosphorylation nor steady-state mRNA levels” and the “inhibition activity on CDK7” value (CDK7-cyclin H-MAT1) was “similarly–low–inhibition activity”. The “effect on Pol II CTD phosphorylation” value [3] was “decreased neither Ser2 phosphorylation”, the “fold less active on CDK12 than THZ531” value (CDK12-cyclin K) was 50–100 fold and the “fold less active on CDK12 than THZ531” value (CDK12-cyclin K; listed as reversible analog) was “more than 100 fold”. For the same molecule, the “fold less active on CDK13 than THZ531” value (CDK13-cyclin K) was 50–100 fold, the “fold less active on CDK13 than THZ531” value (CDK13-cyclin K; listed as reversible analog) was “more than 100 fold” and the “antiproliferative activity in Jurkat cells” value [5] was “minimal antiproliferative activity”.

In the case of `CN(C)C/C=C/C(=O)Nc1ccc(C(=O)N2CCC[C@H](Nc3ncc(Cl)c(-c4c[nH]c5ccccc45)n3)C2)cc1` [THZ532, (S,E)-N-(4-(3-((5-chloro-4-(1H-indol-3-yl)pyrimidin-2-yl)amino)piperidine-1-carbonyl)phenyl)-4-(dimethylamino)but-2-enamide], the “inhibition activity on CDK9” value (CDK9-cyclin T1) is reported as “similarly–low–inhibition activity”, the “effect on steady-state mRNA levels” value [2] is reported as “decreased neither Ser2 phosphorylation nor steady-state mRNA levels” and the “inhibition activity on CDK7” value (CDK7-cyclin H-MAT1) is reported as “similarly–low–inhibition activity”. For the same molecule, the “effect on Pol II CTD phosphorylation” value [3] was “decreased neither Ser2 phosphorylation” and the “antiproliferative activity in Jurkat cells” value [5] was “minimal antiproliferative activity”.

For `CN(C/C=C/C(=O)Nc1ccc(C(=O)Nc2cccc(Nc3ncc(Cl)c(-c4c[nH]c5ccccc45)n3)c2)cc1)CCCNC(=O)NCCOCCOCCOCCNC(=O)CCCC[C@@H]1SC[C@@H]2NC(=O)N[C@@H]21` [bioTHZ1, reference compound], the complexes pulled down [6] was “pulls down CDK7, CDK12, and 13 complexes”.

With `CC1NC(=O)NC1CCCCCC(=O)NCCOCCOCCOCCNC(=O)CCN(C)C/C=C/C(=O)Nc1ccc(C(=O)N2CCC[C@@H](Nc3ncc(Cl)c(-c4c[nH]c5ccccc45)n3)C2)cc1` (stereo partly drawn) [bioTHZ531, N-((E)-20-((4-((R)-3-((5-chloro-4-(1H-indol-3-yl)pyrimidin-2-yl)amino)piperidine-1-carbonyl)phenyl)amino)-16-methyl-13,20-dioxo-3,6,9-trioxa-12,16-diazaicos-18-en-1-yl)-6-(5-methyl-2-oxoimidazolidin-4-yl)hexanamide] the complexes pulled down [6] was “pulls down CDK12-cyclin K and CDK13-cyclin K complexes, but not CDK7-cyclin H complexes”.

B1: human cyclin K residues 11-267 (domain or fragment, UniProt O75909 11-267, looked up)
chain: SVTSANLDHTKPCWYWDKKDLAHTPSQLEGLDPATEARYRREGARFIFDVGTRLGLHYDTLATGIIYFHRFYMFHSFKQFPRYVTGACCLFLAGKVEETPKKCKDIIKTARSLLNDVQFGQFGDDPKEEVMVLERILLQTIKFDLQVEHPYQFLLKYAKQLKGDKNKIQKLVQMAWTFVNDSLCTTLSLQWEPEIIAVAVMYLAGRLCKFEIQEWTSKPMYRRWWEQFVQDVPVDVLEDICHQILDLYSQGKQQMPH
B1: binds [7].
